From patent publication US8486961B2, “Pyrrolo[4,3,2-de]quinolin-8-amine compounds and methods of their preparation and use” (Wyeth LLC, priority 2008, dated 2013)
Like-named read-outs stand apart in the source and are kept apart here.

What was measured:
MDA468 cells = assay: In vitro cell growth assay (MTS), MDA468; format: cell-based, human
Method: (§1) Cells of human tumor lines LNCap and MDA468 were plated in 96-well culture plates at approximately 3000 cells per well. One day following plating, various doses of mTOR inhibitors were added to cells. Three days after drug treatment, viable cell densities were determined by metabolic conversion (by viable cells) of the dye MTS, a well-established cell proliferation assay. The assays were performed using an assay kit purchased from Promega Corp. (Madison, Wis.) following the protocol supplied with the kit. The MTS assay results were read in a 96-well plate reader by measuring absorbance at 490 nm. The effect of each treatment was calculated as percent of control growth relative to the vehicle-treated cells grown in the same culture plate. The drug concentration that conferred 50% inhibition of growth was determined as IC50 (μM).

LNCap cells = assay: In vitro cell growth assay (MTS), LNCap; format: cell-based, human
Method: as §1

mTOR = target: T1, mTOR (Homo sapiens, UniProt P42345); assay: mTOR kinase assay (DELFIA, purified enzyme); format: biochemical; details: purified FLAG-TOR, 100 μM ATP, His6-S6K substrate; * = compounds 4 and 5 screened as a mixture
T1 construct: FLAG
Method: The routine human TOR assays with purified enzyme were performed in 96-well plates by DELFIA format as follows. Enzymes were first diluted in kinase assay buffer (10 mM Hepes (pH 7.4), 50 mM NaCl, 50 mM β-glycerophosphate, 10 mM MnCl2, 0.5 mM DTT, 0.25 μM microcystin LR, and 100 μg/mL BSA). To each well, 12 μL of the diluted enzyme were mixed briefly with 0.5 μL test inhibitor or control vehicle dimethylsulfoxide (DMSO). The kinase reaction was initiated by adding 12.5 μL kinase assay buffer containing ATP and His6-S6K to give a final reaction volume of 25 μL containing 800 ng/mL FLAG-TOR, 100 μM ATP and 1.25 μM His6-S6K. The reaction plate was incubated for 2 hours (linear at 1-6 hours) at room temperature with gentle shaking and then terminated by adding 25 μL Stop buffer (20 mM Hepes (pH 7.4), 20 mM EDTA, 20 mM EGTA). The DELFIA detection of the phosphorylated (Thr-389) His6-S6K was performed at room temperature using a monoclonal anti-P(T389)-p70S6K antibody (1A5, Cell Signaling) labeled with Europium-N1-ITC (Eu) (10.4 Eu per antibody, PerkinElmer). The DELFIA Assay buffer and Enhancement solution were purchased from PerkinElmer. 45 μL of the terminated kinase reaction mixture was transferred to a MaxiSorp plate (Nunc) containing 55 μL PBS. The His6-S6K was allowed to attach for 2 hours after which the wells were aspirated and washed once with PBS. 100 μL of DELFIA Assay buffer with 40 ng/mL Eu-P(T389)—S6K antibody was added. The antibody binding was continued for 1 hour with gentle agitation. The wells were then aspirated and washed 4 times with PBS containing 0.05% Tween-20 (PBST). 100 μL of DELFIA Enhancement solution was added to each well and the plates were read in a PerkinElmer Victor model plate reader. Data obtained were used to calculate enzymatic activity and enzyme inhibition by potential inhibitors. mTOR IC50 data (reported in μM) is provided in Table 1.

[1] = 72 h, MDA468 human tumor line, 3 days treatment, MTS, * = compounds 4 and 5 screened as a mixture, read-out: MDA 468 IC50
[2] = 72 h, LNCap human tumor line, 3 days treatment, MTS, * = compounds 4 and 5 screened as a mixture
[3] = Homo sapiens, LNCap cell growth

Structure (SMILES) | IC50 (LNCap cells; [2]) | IC50 (LNCap cells; [3]) | IC50 (mTOR) | IC50 (MDA468 cells; [1]) | IC50 (MDA468 cells; Homo sapiens, Example 8)
CCCC(=O)Nc1cc(N)c2c3c(cc(C(=O)CCO)nc13)C=N2 [Compound 3, N-(8-amino-4-(3-hydroxypropanoyl)pyrrolo[4,3,2-de]quinolin-6-yl)butyramide] | > 12000 nM |  | > 4000 nM | > 12000 nM | 
CC(C)C(=O)Nc1cc(N)c2c3c(cc(C(=O)CCO)nc13)C=N2 [Compound 6, N-(8-amino-4-(3-hydroxypropanoyl)pyrrolo[4,3,2-de]quinolin-6-yl)isobutyramide] | 6500 nM |  | > 4000 nM | 1200 nM | 
CCC(=O)Nc1cc(N)c2c3c(cc(C(=O)CCO)nc13)C=N2 [Compound 7, N-(8-amino-4-(3-hydroxypropanoyl)pyrrolo[4,3,2-de]quinolin-6-yl)propionamide] | 5000 nM |  | > 4000 nM | 400 nM | 
CCC(C)C(=O)Nc1cc(N)c2c3c(cc(C(=O)CCO)nc13)C=N2 (stereo not drawn) [Compound 9, N-(8-amino-4-(3-hydroxypropanoyl)pyrrolo[4,3,2-de]quinolin-6-yl)-2-methylbutanamide] | 10000 nM |  | 3200 nM | 7600 nM | 

Second part, led by results:

IC50 (LNCap cells; [2]) | IC50 (LNCap cells; [3]) | IC50 (mTOR) | Structure (SMILES) | IC50 (MDA468 cells; [1]) | IC50 (MDA468 cells; Homo sapiens, Example 8)
48 nM | 20 to 300 nM | 1.5 nM | CCC(=O)Nc1cc(N)c2c3c(cc(C(=O)/C=C/OC)nc13)C=N2 [Compound 1, (E)-N-(8-amino-4-(3-methoxyacryloyl)pyrrolo[4,3,2-de]quinolin-6-yl)-propionamide] | 85 nM | 50 to 800 nM
22 nM | 20 to 300 nM | 0.8 nM | CO/C=C/C(=O)c1cc2c3c(c(N)cc(NC(=O)C(C)C)c3n1)N=C2 [Compound 2, (E)-N-(8-amino-4-(3-methoxyacryloyl)pyrrolo[4,3,2-de]quinolin-6-yl)isobutyramide] | 58 nM | 50 to 800 nM
230 nM | 20 to 300 nM | 1.8 nM | CO/C=C/C(=O)c1cc2c3c(c(N)cc(NC(=O)CC(C)C)c3n1)N=C2 [Compound 4, (E)-N-(8-amino-4-(3-methoxyacryloyl)pyrrolo[4,3,2-de]quinolin-6-yl)-3-methylbutanamide] | 700 nM | 50 to 800 nM
230 nM |  | 1.8 nM | CCC(C)C(=O)Nc1cc(N)c2c3c(cc(C(=O)/C=C/OC)nc13)C=N2 (stereo not drawn) [Compound 5, (E)-N-(8-amino-4-(3-methoxyacryloyl)pyrrolo[4,3,2-de]quinolin-6-yl)-2-methylbutanamide] | 700 nM | 
2900 nM |  | 1500 nM | CC(C)CC(=O)Nc1cc(N)c2c3c(cc(C(=O)CCO)nc13)C=N2 [Compound 8, N-(8-amino-4-(3-hydroxypropanoyl)pyrrolo[4,3,2-de]quinolin-6-yl)-3-methylbutanamide] | 3500 nM | 
